According to US12473296B2, “Perk inhibiting compounds” (HiberCell, Inc., priority 2019, dated 2025):
pIC50: −log10 of the molar value.

Experiments:
[1] = molecular target: EIF2AK3 (PERK) catalytic domain (amino acids 536-1116) (Homo sapiens (Human), UniProt Q9NZJ5); test: PERK in vitro activity assay (isolated), TR-FRET kinase assay; conditions: isolated PERK enzyme, 1.5 μM ATP, GFP-eIF2a substrate; read-out: Biochemical IC50
Description: PERK In Vitro Activity Assay (Isolated):
In vitro Inhibition of PERK Enzyme Activity (isolated) Recombinant human EIF2AK2 (PKR) catalytic domain (amino acids 252-551), EIF2AK3 (PERK) catalytic domain (amino acids 536-1116), GFP-eIF2a substrate, and Terbium-labelled phospho-eIF2a antibody is obtained (Invitrogen, Carlsbad, CA).
Express and purify HIS-SUMO-GCN2 catalytic domain (amino acids 584-1019) from E. coli. Perform TR-FRET kinase assays in the absence or presence of inhibitors in a reaction buffer consisting of 50 mM HEPES, pH 7.5, 10 mM MgCb, 1.0 mM EGTA, and 0.01% Brij-35, and 100-200 nM GFP-eIF2a substrate. […] Add test compound, initiate the reaction by addition of enzyme, and incubate at room temperature for 45 minutes. Stop the reaction by addition of EDTA to a final concentration of 10 mM, add Terbium-labelled phospho-eIF2a antibody at a final concentration of 2 nM, and incubate for 90 minutes. Monitor the resulting fluorescence in an EnVison® Multilabel reader (PerkinElmer, Waltham, MA). Determine TR-FRET ratios and the resulting IC50 values using a 4-parameter nonlinear logistic equation as shown: Y=(A+((B−A)/(1+((C/x)[…])))) where, Y=% specific inhibition, A=Bottom of the curve, B=Top of the curve, C=absolute IC50 (concentration causing 50% inhibition), and D=hill slope.

[2] = molecular target: PERK (Homo sapiens (Human), UniProt Q9NZJ5); test: PERK cellular assay (TR-FRET, HEK293-EGFP-eIF2α cells, tunicamycin-induced ER stress); format: cell-based; conditions: tunicamycin 2 hours, read-out: Cellular IC50 (μM) (EIF2a)
PERK, sequence (Q9NZJ5 30-1116): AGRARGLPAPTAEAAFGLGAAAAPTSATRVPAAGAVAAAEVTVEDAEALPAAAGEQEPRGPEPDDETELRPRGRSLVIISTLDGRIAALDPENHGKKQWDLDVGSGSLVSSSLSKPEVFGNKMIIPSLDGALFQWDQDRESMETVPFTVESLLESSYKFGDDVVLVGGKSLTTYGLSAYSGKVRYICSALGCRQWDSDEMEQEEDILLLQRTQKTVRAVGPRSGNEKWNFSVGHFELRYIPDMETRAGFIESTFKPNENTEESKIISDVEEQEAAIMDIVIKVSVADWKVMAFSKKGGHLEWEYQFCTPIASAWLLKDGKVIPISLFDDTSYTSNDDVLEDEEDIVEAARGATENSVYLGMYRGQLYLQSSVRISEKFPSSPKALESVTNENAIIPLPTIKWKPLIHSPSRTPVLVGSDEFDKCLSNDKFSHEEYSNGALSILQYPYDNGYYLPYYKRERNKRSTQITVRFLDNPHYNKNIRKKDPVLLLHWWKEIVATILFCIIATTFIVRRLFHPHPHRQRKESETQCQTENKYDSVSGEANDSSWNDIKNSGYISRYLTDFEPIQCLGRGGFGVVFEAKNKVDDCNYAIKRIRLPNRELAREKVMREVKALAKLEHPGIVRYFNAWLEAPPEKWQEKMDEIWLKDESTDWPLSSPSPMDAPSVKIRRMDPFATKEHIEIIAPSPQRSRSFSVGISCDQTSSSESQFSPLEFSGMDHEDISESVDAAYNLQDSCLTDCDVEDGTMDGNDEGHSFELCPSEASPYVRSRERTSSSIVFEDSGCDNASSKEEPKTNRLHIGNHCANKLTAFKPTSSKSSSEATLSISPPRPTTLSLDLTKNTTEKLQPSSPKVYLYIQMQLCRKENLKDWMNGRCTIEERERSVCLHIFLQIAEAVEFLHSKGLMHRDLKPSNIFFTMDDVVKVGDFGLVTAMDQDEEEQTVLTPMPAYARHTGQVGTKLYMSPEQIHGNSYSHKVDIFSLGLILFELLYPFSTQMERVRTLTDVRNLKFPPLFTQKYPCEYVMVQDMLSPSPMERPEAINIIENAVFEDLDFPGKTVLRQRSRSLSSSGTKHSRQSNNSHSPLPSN
Experimental: Stable cell lines were created in HEK293 cells using lentiviral particles harboring an expression vector for GFP-eIF2α. Cells were selected using puromycin and enriched using fluorescence activated cell sorting against GFP. HEK293-EGFP-eIF2α cells were plated at 5000 cells/well in 384-well assay plates and incubated overnight at 37° C., 5% CO2. Inhibitor compounds were added to the wells by Echo acoustic dispensing and incubated for 30 minutes at 37° C., 5% CO2 prior to induction of ER stress by addition of tunicamycin to […] for 2 hours. Cells were lysed and TR-FRET was measured in an EnVision plate reader (PerkinElmer). FRET ratio data was normalized to signal from lysates treated with DMSO vehicle control and plotted as percent inhibition against 10-point; 3-fold dilution series of inhibitors. IC50 values were calculated using 4-parameter logistical fitting in XLFit.

EIF2AK3 (PERK) catalytic domain (amino acids 536-1116), sequence (Q9NZJ5 536-1116): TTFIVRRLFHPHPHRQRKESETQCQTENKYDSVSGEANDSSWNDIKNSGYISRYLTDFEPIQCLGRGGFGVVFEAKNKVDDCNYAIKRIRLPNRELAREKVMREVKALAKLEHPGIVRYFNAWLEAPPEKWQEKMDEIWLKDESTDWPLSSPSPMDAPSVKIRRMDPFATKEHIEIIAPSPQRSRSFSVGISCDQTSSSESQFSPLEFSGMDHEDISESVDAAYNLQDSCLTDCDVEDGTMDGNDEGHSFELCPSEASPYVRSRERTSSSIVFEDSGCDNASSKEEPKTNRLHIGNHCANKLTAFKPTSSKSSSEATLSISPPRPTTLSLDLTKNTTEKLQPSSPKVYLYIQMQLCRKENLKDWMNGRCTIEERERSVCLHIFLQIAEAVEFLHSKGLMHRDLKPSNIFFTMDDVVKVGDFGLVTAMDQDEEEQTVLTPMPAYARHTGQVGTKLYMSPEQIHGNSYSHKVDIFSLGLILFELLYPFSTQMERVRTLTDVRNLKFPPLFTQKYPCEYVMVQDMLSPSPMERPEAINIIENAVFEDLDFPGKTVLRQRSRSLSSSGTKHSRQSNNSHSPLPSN

| Structure (SMILES) | pIC50 [1] | IC50 [2] |
| --- | --- | --- |
| Cc1cc(NC(=O)C(N)c2ccccc2)ccc1-c1cnc(N)c(C(=O)NC(C)C)c1 (stereo not shown) [Example 7, 2-amino-5-(4-(2-amino-2-phenylacetamido)-2-methylphenyl)-N-isopropylnicotinamide] | 5.70 to 6.00 | > 5 µM |
| Cc1cc(NC(=O)C(O)c2cc(F)cc(F)c2)ccc1-c1cnc(N)c(C(=O)NC(C)C)c1 (stereo not shown) [Example 8, 2-amino-5-(4-(2-(3,5-difluorophenyl)-2-hydroxyacetamido)-2-methylphenyl)-N-isopropyl nicotinamide] | 7.60 to 9.00 | 0.026 to 0.05 µM |
| Cc1cc(NC(=O)C(O)c2cc(F)cc(F)c2)ccc1-c1cnc(N)c(C(=O)NC(C)C)c1 (stereo not shown) [Example 9, 2-amino-5-(4-(2-(3,5-difluorophenyl)-2-hydroxyacetamido)-2-methylphenyl)-N-isopropyl nicotinamide] | 7.30 to 7.59 | 0.101 to 0.25 µM |
| Cc1cc(NC(=O)C(O)c2cc(F)cc(F)c2)ccc1-c1cnc(N)c(C(=O)NCC(C)C)c1 (stereo not shown) [Example 20, 2-amino-5-(4-(2-(3,5-difluorophenyl)-2-hydroxyacetamido)-2-methylphenyl)-N-isobutylnicotinamide] | 7.60 to 9.00 | 0.026 to 0.05 µM |
| Cc1cc(NC(=O)C(O)c2cc(F)cc(F)c2)ccc1-c1cnc(N)c(C(=O)NCC(C)C)c1 (stereo not shown) [Example 21, 2-amino-5-(4-(2-(3,5-difluorophenyl)-2-hydroxyacetamido)-2-methylphenyl)-N-isobutylnicotinamide] | 6.60 to 7.00 | 0.251 to 0.5 µM |
| Cc1cc(NC(=O)C(O)c2cc(F)cc(F)c2)ccc1-c1cnc(N)c(C(=O)N(C)C)c1 (stereo not shown) [Example 22, 2-amino-5-(4-(2-(3,5-difluorophenyl)-2-hydroxyacetamido)-2-methylphenyl)-N,N-dimethylnicotinamide] | 6.00 to 6.30 | 2 to 3 µM |
| Cc1cc(NC(=O)C(O)c2cc(F)cc(F)c2)ccc1-c1cnc(N)c(C(=O)N(C)C)c1 (stereo not shown) [Example 23, 2-amino-5-(4-(2-(3,5-difluorophenyl)-2-hydroxyacetamido)-2-methylphenyl)-N,N-dimethylnicotinamide] | < 5.30 | > 5 µM |
| Cc1cc(NC(=O)C(O)c2cc(F)cc(F)c2)ccc1-c1cnc(N)c(C(=O)NC2COC2)c1 (stereo not shown) [Example 24, 2-amino-5-(4-(2-(3,5-difluorophenyl)-2-hydroxyacetamido)-2-methylphenyl)-N-(oxetan-3-yl)nicotinamide] | 7.60 to 9.00 | 0.051 to 0.1 µM |
| Cc1cc(NC(=O)C(O)c2cc(F)cc(F)c2)ccc1-c1cnc(N)c(C(=O)NC2COC2)c1 (stereo not shown) [Example 25, 2-amino-5-(4-(2-(3,5-difluorophenyl)-2-hydroxyacetamido)-2-methylphenyl)-N-(oxetan-3-yl)nicotinamide] | 7.30 to 7.59 | 0.501 to 1 µM |
| COC1CC(NC(=O)c2cc(-c3ccc(NC(=O)C(O)c4cc(F)cc(F)c4)cc3C)cnc2N)C1 (stereo not shown) [Example 28, 2-amino-5-(4-(2-(3,5-difluorophenyl)-2-hydroxyacetamido)-2-methylphenyl)-N-(3-methoxycyclobutyl) nicotinamide] | 7.60 to 9.00 | 0.026 to 0.05 µM |
| COC1CC(NC(=O)c2cc(-c3ccc(NC(=O)C(O)c4cc(F)cc(F)c4)cc3C)cnc2N)C1 (stereo not shown) [Example 29, 2-amino-5-(4-(2-(3,5-difluorophenyl)-2-hydroxyacetamido)-2-methylphenyl)-N-(3-methoxycyclobutyl) nicotinamide] | 7.30 to 7.59 | 0.251 to 0.5 µM |
| CC(C)NC(=O)c1cc(-c2ccc(NC(=O)C(O)c3cc(F)cc(F)c3)cc2F)cnc1N (stereo not shown) [Example 32, 2-amino-5-(4-(2-(3,5-difluorophenyl)-2-hydroxyacetamido)-2-fluorophenyl)-N-isopropylnicotinamide] | 7.60 to 9.00 | 0.051 to 0.1 µM |
| CC(C)NC(=O)c1cc(-c2ccc(NC(=O)C(O)c3cc(F)cc(F)c3)cc2F)cnc1N (stereo not shown) [Example 33, 2-amino-5-(4-(2-(3,5-difluorophenyl)-2-hydroxyacetamido)-2-fluorophenyl)-N-isopropylnicotinamide] | 6.60 to 7.00 | 0.251 to 0.5 µM |
| CC(C)NC(=O)c1cc(-c2ccc(NC(=O)C(O)c3cc(F)cc(F)c3)cc2C(F)(F)F)cnc1N (stereo not shown) [Example 36, 2-amino-5-(4-(2-(3,5-difluorophenyl)-2-hydroxyacetamido)-2-(trifluoromethyl)phenyl)-N-isopropylnicotinamide] | 7.60 to 9.00 | 0.051 to 0.1 µM |
| CC(C)NC(=O)c1cc(-c2ccc(NC(=O)C(O)c3cc(F)cc(F)c3)cc2C(F)(F)F)cnc1N (stereo not shown) [Example 37, 2-amino-5-(4-(2-(3,5-difluorophenyl)-2-hydroxyacetamido)-2-(trifluoromethyl)phenyl)-N-isopropylnicotinamide] | 6.60 to 7.00 | 0.251 to 0.5 µM |
| Cc1cc(NC(=O)C(O)c2cc(F)cc(F)c2)ccc1-c1cnc(N)c(C(=O)NC(C)C)c1 (stereo not shown) [Example 40, 2-amino-5-(4-(2-(3,5-difluorophenyl)-2-hydroxyacetamido)-2-methylphenyl)-N-isopropylnicotinamide] | 7.60 to 9.00 | 0.026 to 0.05 µM |
| Cc1cc(NC(=O)C(O)c2cc(F)cc(F)c2)ccc1-c1cnc(N)c(C(=O)O)c1 (stereo not shown) [Example 41, 2-amino-5-(4-(2-(3,5-difluorophenyl)-2-hydroxyacetamido)-2-methylphenyl) nicotinic acid] | 6.60 to 7.00 | > 5 µM |

Next, values leading:

| pIC50 [1] | IC50 [2] | Structure (SMILES) |
| --- | --- | --- |
| 7.60 to 9.00 | 0.026 to 0.05 µM | Cc1cc(NC(=O)[C@H](O)c2cc(F)cc(F)c2)ccc1-c1cnc(N)c(C(=O)NC2CC2)c1 [Example 14, (R)-2-amino-N-cyclopropyl-5-(4-(2-(3,5-difluorophenyl)-2-hydroxyacetamido)-2-methylphenyl)nicotinamide] |
| 7.30 to 7.59 | 0.251 to 0.5 µM | Cc1cc(NC(=O)C(O)c2cc(F)cc(F)c2)ccc1-c1cnc(N)c(C(=O)NC2CC2)c1 (stereo not shown) [Example 15, 2-amino-N-cyclopropyl-5-(4-(2-(3,5-difluorophenyl)-2-hydroxyacetamido)-2-methylphenyl) nicotinamide] |
| 7.60 to 9.00 | 0.101 to 0.25 µM | Cc1cc(NC(=O)C(O)c2cc(F)cc(F)c2)ccc1-c1cnc(N)c(C(=O)NC2CC(O)C2)c1 (stereo not shown) [Example 26, 2-amino-5-(4-(2-(3,5-difluorophenyl)-2-hydroxyacetamido)-2-methylphenyl)-N-(3-hydroxycyclobutyl) nicotinamide] |
| 7.00 to 7.29 | 1 to 2 µM | Cc1cc(NC(=O)C(O)c2cc(F)cc(F)c2)ccc1-c1cnc(N)c(C(=O)NC2CC(O)C2)c1 (stereo not shown) [Example 27, 2-amino-5-(4-(2-(3,5-difluorophenyl)-2-hydroxyacetamido)-2-methylphenyl)-N-(3-hydroxycyclobutyl) nicotinamide] |
| 7.60 to 9.00 | 0.501 to 1 µM | CC(=O)N1CC(NC(=O)c2cc(-c3ccc(NC(=O)C(O)c4cc(F)cc(F)c4)cc3C)cnc2N)C1 (stereo not shown) [Example 30, N-(1-acetylazetidin-3-yl)-2-amino-5-(4-(2-(3,5-difluorophenyl)-2-hydroxyacetamido)-2-methylphenyl) nicotinamide] |
| 7.00 to 7.29 | 3 to 4 µM | CC(=O)N1CC(NC(=O)c2cc(-c3ccc(NC(=O)C(O)c4cc(F)cc(F)c4)cc3C)cnc2N)C1 (stereo not shown) [Example 31, N-(1-acetylazetidin-3-yl)-2-amino-5-(4-(2-(3,5-difluorophenyl)-2-hydroxyacetamido)-2-methylphenyl) nicotinamide] |
| 7.60 to 9.00 | 3 to 4 µM | Cc1cc(NC(=O)C(O)c2cc(F)cc(F)c2)ccc1-c1cnc(N)c(C(=O)NC2CNC2)c1 (stereo not shown) [Example 44, 2-amino-N-(azetidin-3-yl)-5-(4-(2-(3,5-difluorophenyl)-2-hydroxyacetamido)-2-methylphenyl) nicotinamide] |
| 7.00 to 7.29 | > 5 µM | Cc1cc(NC(=O)C(O)c2cc(F)cc(F)c2)ccc1-c1cnc(N)c(C(=O)NC2CNC2)c1 (stereo not shown) [Example 45, 2-amino-N-(azetidin-3-yl)-5-(4-(2-(3,5-difluorophenyl)-2-hydroxyacetamido)-2-methylphenyl) nicotinamide] |
| 7.60 to 9.00 | 0.501 to 1 µM | Cc1cc(NC(=O)C(O)c2cc(F)cc(F)c2)ccc1-c1cnc(N)c(C(=O)NC2CN(C)C2)c1 (stereo not shown) [Example 46, 2-amino-5-(4-(2-(3,5-difluorophenyl)-2-hydroxyacetamido)-2-methylphenyl)-N-(1-methylazetidin-3-yl)nicotinamide] |
